Structures can show the parent of a compound that is named as a salt.
What follows are compounds tested against PDE5 (Sus scrofa, UniProt A0A287B475) (assay: Inhibitory action on the enzyme cGMP-PDE obtained from porcine platelets). Settings: 1 μM cGMP substrate, 1 mM EGTA, read-out: PDE 5 IC50.
Type: biochemical
Protocol: 1) Inhibitory Action on the Enzyme cGMP-PDE Obtained from Porcine Platelets
The inhibitory activity of a test compound on the enzyme cGMP-PDE prepared from porcine platelets was determined by adding a solution of the test compound dissolved in DMSO to a reaction solution, where 1 μM cGMP was used as the substrate in the presence of 1 mM EGTA in accordance with a method of Tompson et al. The final concentration of DMSO in the reaction solution was 1% or less. Preparation of cGMP-PDE was conducted as follows. Porcine platelets were added to buffer A (20 mM Tris/HCl, 2 mM magnesium acetate, 10 mM 2-mercaptoethanol, 0.1 mM EGTA; pH 7.4), and then sonicated. The resulting suspension was centrifuged at 100,000×g for 60 min, and the resulting supernatant was subjected to a column (DEAE-Toyopearl 650S produced by Tosoh, Tokyo, Japan). After the column was washed with buffer A, the enzyme was eluted with a gradient of from 0.075 to 0.25 M NaCl in buffer A to give a CGMP-PDE fraction. The resulting fraction was dialyzed, concentrated and stored.

Compound	IC50 [nM]
COc1ccc(CNc2nnc(-c3cccnc3)c3ccc(C#N)cc23)cc1Cl [Example 1, 4-(3-Chloro-4-methoxybenzyl)amino-6-cyano-1-(3-pyridyl)phthalazine Dihydrochloride]	0.78
COc1ccc(CNc2nnc(-c3ccccn3)c3ccc(C#N)cc23)cc1Cl [Example 2, 4-(3-Chloro-4-methoxybenzyl)amino-6-cyano-1-(2-pyridyl)phthalazine Dihydrochloride]	0.3
COc1ccc(CNc2nnc(N3CCC(C#N)CC3)c3ccc(C#N)cc23)cc1Cl [Example 3, 4-(3-Chloro-4-methoxybenzyl)amino-6-cyano-1-(4-cyanopiperidino)phthalazine Hydrochloride]	1.1
COc1ccc(CCNc2nnc(N3CCC(C#N)CC3)c3ccc(C#N)cc23)cc1Cl [Example 4, 4-(3-Chloro-4-methoxyphenethyl)amino-6-cyano-1-(4-cyanopiperidino)phthalazine Hydrochloride]	0.51
COc1ccc(CNc2nnc(N3CCC(N)CC3)c3ccc(C#N)cc23)cc1Cl [Example 5, 1-(4-Aminopiperidino)-4-(3-chloro-4-methoxybenzyl)amino-6-cyanophthalazine Dihydrochloride]	0.051
COc1ccc(CNc2nnc(N3CCC(O)(CO)CC3)c3ccc(C#N)cc23)cc1Cl [Example 6, 4-(3-Chloro-4-methoxybenzyl)amino-6-cyano-1-[4-hydroxy-4-(hydroxymethyl)piperidino]phthalazine Hydrochloride]	0.98
COc1ccc(CNc2nnc(N3CCC4(CC3)COC(=O)C4)c3ccc(C#N)cc23)cc1Cl [Example 11, 4-[(3-Chloro-4-methoxybenzyl)amino]-1-(3-oxo-2-oxa-8-azaspiro[4.5]dece-8-yl)-6-phthalazine Carbonitrile]	0.68
COc1ccc(CNc2nnc(N3CCC4(CC3)CC(=O)C4)c3ccc(C#N)cc23)cc1Cl [Example 12, 4-[(3-Chloro-4-methoxybenzyl)amino]-1-(2-oxo-7-azaspiro[3.5]non-7-yl)-6-phthalazine Carbonitrile]	0.54
COc1ccc(CNc2nnc(C#CC(C)(C)N)c3ccc(C#N)cc23)cc1Cl [Example 25, 1-(3-Amino-3-methyl-1-butynyl)-4-[(3-chloro-4-methoxybenzyl)amino]-6-phthalazinecarbonitrile Hydrochloride]	0.16
COc1ccc(CNc2nnc(N3CCC(F)(CO)CC3)c3ccc(C#N)cc23)cc1Cl [Example 43, 4-[(3-Chloro-4-methoxybenzyl)amino]-1-[4-fluoro-4-(hydroxymethyl)piperidino]-6-phthalazinecarbonitrile Hydrochloride]	0.23
COc1ccc(CNc2nnc(N3CCC(=NO)CC3)c3ccc(C#N)cc23)cc1Cl [Example 50, 4-[(3-Chloro-4-methoxybenzyl)amino]-1-(4-hydroxyiminopiperidino)-6-phthalazinecarbonitrile Hydrochloride]	0.24
COc1ccc(CNc2nnc(N3[C@@H]4CC[C@H]3C[C@@H](O)C4)c3ccc(C#N)cc23)cc1Cl [Example 52, (endo)-4-[(3-Chloro-4-methoxybenzyl)amino]-1-(3-hydroxy-8-azabicyclo[3.2.1]oct-8-yl)-6-phthalazinecarbonitrile Hydrochloride]	0.2
COc1ccc(CNc2nnc(N3CCC(O)CC3)c3ccc(C#N)cc23)cc1I [Example 76, 1-(4-Hydroxypiperidino)-4-[(3-iodo-4-methoxybenzyl)amino]-6-phthalazinecarbonitrile Hydrochloride]	0.13
COc1ccc(CNc2nnc(N3CC[C@H](CO)C3)c3ccc(C#N)cc23)cc1Br [Example 79, 4-[(3-Bromo-4-methoxybenzyl)amino]-1-[(3S)-3-(hydroxymethyl)tetrahydro-1H-1-pyrrolyl]-6-phthalazinecarbonitrile Hydrochloride]	0.27
COc1ccc(CNc2nnc(N3CCC(CO)CC3)c3ccc(C#N)cc23)cc1Br [Example 84, 4-[(3-Bromo-4-methoxybenzyl)amino]-1-[4-(hydroxymethyl)piperidino]-6-phthalazinecarbonitrile Hydrochloride]	0.93
COc1ccc(CNc2nnc(N3[C@@H]4CC[C@H]3C[C@@H](O)C4)c3ccc(C#N)cc23)cc1Br [Example 85, (endo)-4-[(3-Bromo-4-methoxybenzyl)amino]-1-(3-hydroxy-8-azabicyclo[3.2.1]octo-8-yl)-6-phthalazine Carbonitrile]	0.12

The remaining lines, values ahead:

IC50 [nM]	Compound
0.1	COc1ccc(CNc2nnc(N3CCC(O)CC3)c3ccc(-n4cccn4)cc23)cc1Cl [Example 105, 1-[4-[(3-Chloro-4-methoxybenzyl)amino]-6-(1H-1-pyrazolyl)-1-phthalazinyl]-4-piperidinol Hydrochloride]
0.66	CO/N=C/c1ccc2c(N3CCC(O)CC3)nnc(NCc3ccc(OC)c(Cl)c3)c2c1 [Example 110, 4-[(3-Chloro-4-methoxybenzyl)amino]-1-(4-hydroxypiperidino)-6-phthalazinecarbaldehyde O6-Methyloxime Hydrochloride]
0.09	COc1ccc(CNc2nnc(N3CCC[C@@H](O)C3)c3ccc(C#N)cc23)cc1Cl [Production Example 1, 4-(3-Chloro-4-methoxybenzyl)amino-6-cyano-1-[(3R)-3-hydroxypiperidino]phthalazine Hydrochloride]
0.72	COc1ccc(CNc2nnc(N3CCC[C@H]3CO)c3ccc(C#N)cc23)cc1Cl [Production Example 3, 4-(3-Chloro-4-methoxybenzyl)amino-6-cyano-1-[(2S)-2-hydroxymethylpyrrolidino]phthalazine Hydrochloride]
0.19	COc1ccc(CNc2nnc(N3CCCC(CO)C3)c3ccc(C#N)cc23)cc1Cl (centres unmarked) [Production Example 4, 4-(3-Chloro-4-methoxybenzyl)amino-6-cyano-1-(3-hydroxymethylpiperidino)phthalazine Hydrochloride]
0.23	COc1ccc(CCNc2nnc(N3CCCC(CO)C3)c3ccc(C#N)cc23)cc1Cl (centres unmarked) [Production Example 5, 4-(3-Chloro-4-methoxyphenethyl)amino-6-cyano-1-(3-hydroxymethylpiperidino)phthalazine Hydrochloride]
0.5	COc1ccc(CCNc2nnc(N3CCC(CO)CC3)c3ccc(C#N)cc23)cc1Cl [Production Example 6, 4-(3-Chloro-4-methoxyphenethyl)amino-6-cyano-1-(4-hydroxymethylpiperidino)phthalazine]
0.03	COc1ccc(CNc2nnc(N(C)Cc3ccccn3)c3ccc(C#N)cc23)cc1Cl [Production Example 7, 4-(3-Chloro-4-methoxybenzyl)amino-6-cyano-1-[methyl(2-pyridylmethyl)amino]phthalazine Dihydrochloride]
0.47	COc1ccc(CNc2nnc(N(C)CCc3ccccn3)c3ccc(C#N)cc23)cc1Cl [Production Example 8, 4-(3-Chloro-4-methoxybenzyl)amino-6-cyano-1-{N-methyl-[2-(2-pyridyl)ethyl]amino}phthalazine Dihydrochloride]
0.24	COc1ccc(CNc2nnc(N3CCC(O)C(C)C3)c3ccc(C#N)cc23)cc1Cl (centres unmarked) [Production Example 11, 4-[(3-Chloro-4-methoxybenzyl)amino]-1-(4-hydroxy-3-methylpiperidino)-6-phthalazinecarbonitrile Hydrochloride]

Source: patent US6498159B1, “Phthalazine derivatives and remedies for erectile dysfunction” (Eisai Co., Ltd., priority 1998, dated 2002)
